{
  "source": "patent US20120283298A1",
  "about": "“METHODS FOR TREATING MEMORY IMPAIRMENT” (priority 2009, published 2012)",
  "key": {"[1]": {"system": "SAMP8 mice", "test": "T-maze foot-shock avoidance acquisition after acute i.c.v. injection", "assay_type": "in vivo, mouse", "description": "T-Maze Testing. The T-maze avoidance apparatus training and testing procedures have been previously described, and shown as an effective means to assess learning in SAMP8 mice (Flood and Morley, 1993; Farr et al., 2000). […] Octreotide is a primarily SSTR2 agonist, of the SRIF-1 family, serving as an additional control set. Forty-eight hours prior to testing, the mice were anesthetized with 2,2,2-tribromoethanol, placed in a stereotaxic instrument, and the scalp was deflected. A unilateral hole was drilled 0.5 mm anterior and 1.0 mm to the right of the bregma. […] This time frame is consistent with work by others showing somatostatin administration over 24 hrs decreased Aβ1-42 concentrations in the brain (Saito et al., 2005). […] Twenty-four hours following drug administration mice were evaluated using the T-maze test.\nThe T-maze consisted of a black plastic alley with a start box at one end and two goal boxes at the other. The start box was separated from the alley by a plastic guillotine door, which prevented movement down the alley until training began. An electrifiable stainless steel rod floor ran throughout the maze to deliver scrambled foot-shock. Mice were trained and tested between 07:00 and 15:00 h. Mice were not permitted to explore the maze prior to training. A block of training trials began when a mouse was placed into the start box. The guillotine door was raised and a buzzer sounded simultaneously; 5 s later foot-shock was applied. The goal box entered on the first trial was designated “incorrect” and the foot-shock was continued until the mouse entered the other goal box, which in all subsequent trials was designated as “correct” for the particular mouse. At the end of the acquisition trial, mice were decapitated and the brains flash frozen and stored at −80° C. for subsequent analyses."}, "[2]": {"system": "Aβ42", "test": "ELISA analysis of Aβ42 in brain tissue ex vivo", "set-up": "species or system mouse", "experimental": "Brain levels of Aβ42 were evaluated ex vivo, from flash frozen whole brain tissue following respective behavioral analyses, using ultra-centrifugation and solid phase extraction methods (Lanz and Schachter, 2006; Zupa-Fernandez et al., 2007), coupled with Enzyme-linked immunosorbent assay (ELISA) analysis. Half of the brain tissue was dedicated to Western blot examinations with remainder used for Aβ42 evaluation. Brain tissue was homogenized and incubated with 1 mL 50 mM NaCl, 0.4% DEA, pH=10, containing protease inhibitor (Roche, Indianapolis, Ind.). Samples were kept on ice for 20 min, followed by sonication at 30% for 30 sec. Samples were then incubated at room temperature (3 h) followed by centrifugation at 355,000×g for 30 min (4° C.). Supernatant was collected for extraction using Oasis HLB 3 cc columns (Waters, Milford, Mass.). Oasis columns were activated with 2 mL methanol (MeOH), followed by 2 mL diH2O. Brain homogenates were loaded in 1 mL increments. Samples were then washed sequentially with 1 mL volumes of 5% and 30% MeOH, then eluted with 1 mL 2% NH4OH in 90% MeOH. Eluted samples were collected and vacuum-centrifuged at 1400 rpm, 60° C. for 90-120 min. Once samples were dried completely, they were stored at −80° C. until assay. Samples were reconstituted and analyzed in duplicate according to ELISA assay directions (Beta-Mark Aβx-42, Covance, Dedham, Mass.) via luminometer (Lumistar Optima, BMG Labtech, Durham, N.C.). Aβ42 levels were calculated from linear-regression curve in pg/ml and then set to gram weight of brain tissue and normalized to respective controls.\nEvaluation of Aβ. Brain levels of Aβ42 were evaluated ex vivo as described above in Example 1."}, "[3]": {"system": "SAMP8 mice", "test": "T-maze acquisition and retention after chronic i.p. administration", "assay_type": "in vivo, mouse", "conditions": "for mean trials to first avoidance versus vehicle (learning): day 21", "experimental": "T-Maze testing. The T-maze avoidance apparatus, training and testing procedures were as previously described in Example 1. […] Dosing range for i.p. administration (0.2-200 μg) was extrapolated from previous i.c.v. administration data as described in Example 1 above. Respective doses were given once a day over a period of 28 days. Learning and memory was assessed by the T-maze model. Learning evaluations were conducted at three weeks of treatment (day 21), while memory was assessed after one additional week of treatment (day 28). […] At the end of the evaluations mice were decapitated and the brains flash frozen and stored at −80° C. for subsequent analyses."}, "[4]": {"system": "SAMP8 mice", "test": "Object-recognition task after i.c.v. injection", "assay_type": "in vivo, mouse", "conditions": "0.2 μg i.c.v., 48 h after injection", "experimental": "Object-recognition is a non-spatial memory recognition task, shown to be effective in SAMP8 mice (Bevins and Besheer, 2006; Fontan-Lozano et al., 2008). In this task, treated and control mice are measured as to the difference in time spent with a familiar (or remembered) object and a novel object. Mice received a single optimized dose (0.2 μg) determined from T-maze assessment, against vehicle control (0 μg). Dosing was performed 24 h prior to the initial training period and the recognition task was evaluated 24 h after training (i.e. 48 h after dosing). Mice were habituated to an empty apparatus (55×40×40 cm) for 5 min a day for 3 days prior to entry of the objects. On the day of training two similar objects were placed in the maze. Mice were placed in the maze and allowed to explore the objects for 5 min. In the 24-h retention test, one of the same objects is placed in the maze, as well as a new object in a new location. The difference in percent time spent exploring the new object over the familiar object was then determined. The criteria for exploration were based strictly on active exploration, where the mouse had both forelimbs within a circle of 1.5 cm around the object, with its head oriented toward it, or when touching it with its vibrissae. At the end of the retention trial, mice were decapitated and the brains flash frozen and stored at −80° C. for subsequent analyses."}, "[5]": {"system": "APPswe transgenic mice", "test": "T-maze avoidance learning acquisition in APPswe transgenic mice after i.c.v. injection", "assay_type": "in vivo, mouse", "conditions": "0.2 μg i.c.v.", "description": "The APPswe transgenic mouse carries a transgene coding for the 695-amino acid isoform of human Alzheimer A R precursor protein. (K. Hsiao et al., 274 Science 99-102, 1996). These mice express high concentrations of the mutant AR , with significant amyloid plaques, and display memory deficits. At 11-13 months of age they show a 14-fold increase in AR (1-42/43) over those at 2-8 months of age. Elevated AR levels are associated with the development of amyloid deposits in frontal, temporal and entorhinal cortex, hippocampus, presubiculum, and cerebellum, with some mice developing the signature cross pattern of deposits seen inhuman AD. […] Thus APPswe transgenic mice are also a good model for studying APP expression, amyloid plaque formation, neuronal decline, and memory loss associated with AD, and for studying drug candidates for treatment or prevention of AD. APPswe (Tg2576) mice, and non-transgenic siblings as controls, were obtained from Taconic (New York). All other materials and methods were as described for Example 1.\nAAPswe transgenic mice were administered 0.2 μg of NNC 26-91001.c.v. after a 2 hour fasting period, followed by an additional hour of fasting after administration. Animals were tested using the T-maze model as described above in Example 1."}, "[6]": {"system": "SSTR4, APP, and NEP", "test": "Western blot expression of SSTR4, APP and NEP in brain tissue ex vivo", "set-up": "species or system mouse", "experimental": "Protein expression of brain tissues was evaluated ex vivo, from flash frozen whole brain tissue following respective behavioral analyses, by Western blot analyses for SSTR4, APP and NEP. Tissues were homogenized in RIPA buffer containing protease inhibitor (Roche) using a 1:10 ratio (0.5 g=5 ml), transferred into tubes and spun at 10,000×g for 20 min (4° C.). The supernatant was taken and a protein assay was used to determine the amount of protein present. Samples (100 μg) were separated using an electrophoretic field on Biorad (Bio-Rad, Hercules, Calif.) Tris HCl gels (10%) at 175 V for 70 min following heating at 95° C. for 5 min. GelCode Blue Stain (Pierce, Rockford, Ill.) was used to confirm appropriate protein loading. The proteins were then transferred to nitrocellulose membranes with 240 mA at for 45 min (4° C.). The membranes were then blocked using 5% nonfat milk-Tris-buffered saline (20 mM Tris base, 137 mM NaCl, pH 7.6) with 0.1% Tween-20 for 4 h and then incubated overnight at 4° C. with primary antibodies (1:1,000-1:2,000 dilution) in PBS-0.5% BSA. Antibodies shown effective: SSTR4 (Sigma-Aldrich), NEP (Millipore, Billerica, Mass.), and APP (Millipore). The membranes were then washed with 5% nonfat milk-Tris-buffered saline buffer before incubation with the respective secondary antibody at a 1:2,000 dilution (in PBS-0.5% BSA) for 60 min at room temperature. Blots were developed using the enhanced chemiluminescence method (ECL+; Amersham Life Science Products; Springfield, Ill.), and protein bands visualized on X-ray film. Optical densities were measured by densitometer (Biorad) and evaluated against respective controls. After each initial protein expression assessment, membranes were then stripped and re-probed with actin (Sigma-Aldrich).\nProtein expression in brain tissues was evaluated ex vivo as described above in Example 1."}, "[7]": {"test": "Body weight and behaviour during chronic i.p. dosing", "assay_type": "in vivo, mouse", "conditions": "SAMP8 mice, i.p. 0.2-200 μg once a day, 28 days"}, "[8]": {"conditions": "0.2 μg i.c.v., after object-recognition task"}},
  "note": "Entries after “also recorded” stand apart in the source; their conditions may differ.",
  "data": [
    {"molecule": "CC(C)C[C@H](NP(=O)(O)O[C@@H]1O[C@@H](C)[C@H](O)[C@@H](O)[C@H]1O)C(=O)N[C@@H](Cc1c[nH]c2ccccc12)C(=O)O", "note": "[phosphoramidon, reference compound]", "values": [
      {"measurement": "mean trials to first avoidance, vehicle versus vehicle combined with phosphoramidon", "setting": "[1]; any dose of phosphoramidon (1 or 10 mM), i.c.v.", "value": "No significant change"},
      {"measurement": "Aβ42 within vehicle groups (vehicle alone, +1 mM or +10 mM phosphoramidon)", "setting": "[2]; i.c.v., post-T-maze", "value": "No change"}
    ]},
    {"molecule": "S=C(NCCCc1c[nH]cn1)N(CCc1c[nH]c2ccccc12)Cc1cccc(Cl)c1Cl", "note": "[LIU 686-06A]", "values": [
      {"measurement": "mean trials to first avoidance versus vehicle (learning)", "setting": "[3]; i.p. 0.2 μg daily", "value": "significantly lower number of mean trials to first avoidance"},
      {"measurement": "mean trials to criterion versus vehicle", "setting": "[3]; i.p. 20 μg daily, day 21 as printed", "value": "significantly lower number of mean trials to first criterion"}
    ]},
    {"molecule": "C[C@@H](O)[C@@H]1NC(=O)[C@H](CCCCN)NC(=O)[C@@H](Cc2c[nH]c3ccccc23)NC(=O)[C@H](Cc2ccccc2)NC(=O)[C@@H](NC(=O)[C@H](N)Cc2ccccc2)CSSC[C@@H](C(=O)N[C@H](CO)[C@@H](C)O)NC1=O", "note": "[octreotide, reference compound]", "values": [
      {"measurement": "learned acquisition compared to vehicle", "setting": "[1]; SAMP8 mice, i.c.v., any dose 0.002-2.0 μg", "value": "no significant effects"}
    ]},
    {"molecule": "S=C(NCCCc1c[nH]cn1)NCCCN(Cc1ccc(Cl)c(Cl)c1)c1ccc(Br)cn1", "note": "[NNC 26-9100]", "values": [
      {"measurement": "enhancement in recognition memory (time with novel object) versus vehicle", "setting": "[4]", "value": "approximately 2 fold"},
      {"measurement": "avoidance learning acquisition", "setting": "[5]", "value": "effects in AAPswe transgenic mice similar to those obtained in SAMP8 mice"},
      {"measurement": "SSTR4, APP, or NEP expression, NNC 26-9100 alone, co-administered phosphoramidon, and versus vehicle alone", "setting": "[6]; 0.2 μg i.c.v., +1 mM or +10 mM phosphoramidon", "value": "No changes"},
      {"measurement": "expression of SSTR4, APP, or NEP versus vehicle", "setting": "[6]; [8]", "value": "No significant changes"},
      {"measurement": "expression of SSTR4, APP, or NEP compared to vehicle", "setting": "[6]; SAMP8 brain, i.c.v., 0.002-2.0 μg", "value": "no significant changes"},
      {"measurement": "expression of SSTR4, APP, or NEP versus vehicle", "setting": "[6]; chronic i.p., any dose (0.2-200 μg daily), 28 days", "value": "No significant changes"},
      {"measurement": "mean trials to first avoidance versus NNC 26-9100 alone", "setting": "[1]; 0.2 μg i.c.v. co-administered with 1 mM phosphoramidon, p<0.05", "value": "significant increase in the number of mean trials to first avoidance"},
      {"measurement": "trials to first avoidance versus NNC 26-9100+1 mM phosphoramidon", "setting": "[1]; 0.2 μg i.c.v. co-administered with 10 mM phosphoramidon", "value": "significantly higher number of trials to first avoidance"},
      {"measurement": "mean trials to first avoidance versus NNC 26-9100 alone", "setting": "[1]; 0.2 μg i.c.v. co-administered with 10 mM phosphoramidon, p<0.01", "value": "significant increase in the number of mean trials to first avoidance"},
      {"measurement": "learned avoidance (mean trials to first avoidance) compared to vehicle", "setting": "[1]; SAMP8 mice, i.c.v., 0.2 μg, T-maze 24 h after injection", "value": "significant improvement; also recorded: significantly lower number of mean trials to first avoidance"},
      {"measurement": "mean trials to first avoidance versus vehicle (learning)", "setting": "[3]; i.p. 20 μg daily", "value": "significantly lower number of mean trials to first avoidance"},
      {"measurement": "mean trials to criterion versus vehicle (memory)", "setting": "[3]; i.p. 20 μg daily, day 28, p<0.01", "value": "significantly lower mean trials to criterion"},
      {"measurement": "mean trials to first avoidance versus vehicle (learning)", "setting": "[3]; i.p. 200 μg daily", "value": "significantly lower number of mean trials to first avoidance"},
      {"measurement": "mean trials to criterion versus vehicle (memory)", "setting": "[3]; i.p. 200 μg daily, day 28, p<0.05", "value": "significantly lower mean trials to criterion"},
      {"measurement": "Aβ42 versus NNC 26-9100 alone group", "setting": "[2]; 0.2 μg i.c.v. + 10 mM phosphoramidon, post-T-maze", "value": "significant increase"},
      {"measurement": "Aβ42 versus vehicle", "setting": "[2]; [8]", "value": "no significant change"},
      {"measurement": "decrease in Aβ42 compared to vehicle", "setting": "[2]; SAMP8 brain, post-T-maze, i.c.v., all doses 0.002-2.0 μg", "value": "~20", "unit": "%"},
      {"measurement": "Aβ42 versus vehicle", "setting": "[2]; chronic i.p. 20 μg daily, 28 days", "value": "significant decrease"},
      {"measurement": "Aβ42 versus vehicle", "setting": "[2]; chronic i.p., any other dose (0.2-200 μg range)", "value": "no significant changes"},
      {"measurement": "weight loss or abnormal behaviors", "setting": "[7]", "value": "no animals in the study exhibiting weight loss or abnormal behaviors"}
    ]}
  ]
}
